# Key:
# [1] = target: T1, Indoleamine 2,3-dioxygenase 1 (Homo sapiens, UniProt P14902); test: Inhibition of IDO1 in IFNgamma-stimulated human HeLa cells using L-tryptophan as substrate measured after 48 hrs
# [2] = target: T1, Indoleamine 2,3-dioxygenase 1; test: Inhibition of human IDO1 expressed in Escherichia coli Rosetta using tryptophan as substrate incubated for 1 hr by methylene blue based assay
# [3] = target: Tryptophan 2,3-dioxygenase (Homo sapiens, UniProt P48775); test: Inhibition of human TDO expressed in Escherichia coli Rosetta using tryptophan as substrate incubated for 1 hr by methylene blue based assay
# [4] = Toxicity in humanized PD-1 mouse xenografted with mouse MC38 cells assessed as effect on body weight at 150 to 600 mg/kg, po bid for 14 days in combination with PD-1 antibody at 3 mg/kg, ip qod for 8 days; assay type: organism-based; conditions: in vivo, 336 h, dose 150-600 mg/kg, time 14 day
# MC-38 [5] = test: Antitumor activity against mouse MC38 cells xenograted in po dosed humanized PD-1 mouse assessed as tumor growth inhibition administered twice for 14 days in combination with PD-1 antibody at 3 mg/kg, ip qod for 8 days by digital caliper method; assay type: functional, organism-based; conditions: time 14.0 day
# MC-38 [6] = test: Antitumor activity against mouse MC38 cells xenograted in humanized PD-1 mouse assessed as tumor growth inhibition at 600 mg/kg, po bid for 14 days in combination with PD-1 antibody at 3 mg/kg, ip qod for 8 days by digital caliper method relative to control; assay type: functional; conditions: MC-38, 336 h, time 14 day, read-out: TGI
# MC-38 [7] = test: Antitumor activity against mouse MC38 cells xenograted in humanized PD-1 mouse assessed as tumor growth inhibition at 300 mg/kg, po bid for 14 days in combination with PD-1 antibody at 3 mg/kg, ip qod for 8 days by digital caliper method relative to control; assay type: functional; conditions: MC-38, 336 h, time 14 day, read-out: TGI
# MC-38 [8] = test: Antitumor activity against mouse MC38 cells xenograted in humanized PD-1 mouse assessed as tumor growth inhibition at 150 mg/kg, po bid for 14 days in combination with PD-1 antibody at 3 mg/kg, ip qod for 8 days by digital caliper method relative to control; assay type: functional; conditions: MC-38, 336 h, time 14 day, read-out: TGI
# [9] = target: Indoleamine 2,3-dioxygenase 1 (Mus musculus) (UniProt P28776); test: In vivo inhibition of IDO1 in C57BL/6 mouse assessed as reduction in kynurenine level in plasma at 300 mg/kg, po administered as single dose measured after 2 hrs relative to control; assay type: functional, organism-based
# [10] = Half life in human liver microsomes; assay type: ADME, Microsome
# [11] = Half life in rat liver microsomes; assay type: ADME, Microsome
# [12] = Protein binding in human plasma by rapid equilibrium dialysis method; assay type: ADME, cell-free; conditions: read-out: PPB (converted)
# [13] = Protein binding in dog plasma by rapid equilibrium dialysis method; assay type: ADME, cell-free, Canis lupus familiaris; conditions: read-out: PPB (converted)
# [14] = Protein binding in rat plasma by rapid equilibrium dialysis method; assay type: ADME, cell-free; conditions: read-out: PPB (converted)
# [15] = target: Voltage-gated inwardly rectifying potassium channel KCNH2 (Homo sapiens, UniProt Q12809); test: Inhibition of human ERG expressed in CHO-K1 cells at -90 mV holding potential by automated patch-clamp method; assay type: cell-based
# Cytochrome P450 3A4 = Cytochrome P450 3A4 (Homo sapiens, UniProt P08684); test: Inhibition of CYP3A4 in human liver microsomes using midazolam as substrate incubated for 10 mins in presence of NADPH by UHPLC-MS/MS analysis; assay type: ADME
# Cytochrome P450 2D6 = Cytochrome P450 2D6 (Homo sapiens, UniProt P10635); test: Inhibition of CYP2D6 in human liver microsomes using dextromethorphan as substrate incubated for 10 mins in presence of NADPH by UHPLC-MS/MS analysis; assay type: ADME
# Cytochrome P450 2C19 = Cytochrome P450 2C19 (Homo sapiens, UniProt P33261); test: Inhibition of CYP2C19 in human liver microsomes using S-mephenytoin as substrate incubated for 10 mins in presence of NADPH by UHPLC-MS/MS analysis; assay type: ADME; conditions: read-out: INH
# Cytochrome P450 2C9 = Cytochrome P450 2C9 (Homo sapiens, UniProt P11712); test: Inhibition of CYP2C9 in human liver microsomes using tolbutamide as substrate incubated for 10 mins in presence of NADPH by UHPLC-MS/MS analysis; assay type: ADME
# Cytochrome P450 1A2 = target: T2, Cytochrome P450 1A2 (Homo sapiens, UniProt P05177); test: Inhibition of CYP1A2 in human liver microsomes using phenacetin as substrate incubated for 10 mins in presence of NADPH by UHPLC-MS/MS analysis; assay type: ADME
# T2 sequence (P05177 whole entry): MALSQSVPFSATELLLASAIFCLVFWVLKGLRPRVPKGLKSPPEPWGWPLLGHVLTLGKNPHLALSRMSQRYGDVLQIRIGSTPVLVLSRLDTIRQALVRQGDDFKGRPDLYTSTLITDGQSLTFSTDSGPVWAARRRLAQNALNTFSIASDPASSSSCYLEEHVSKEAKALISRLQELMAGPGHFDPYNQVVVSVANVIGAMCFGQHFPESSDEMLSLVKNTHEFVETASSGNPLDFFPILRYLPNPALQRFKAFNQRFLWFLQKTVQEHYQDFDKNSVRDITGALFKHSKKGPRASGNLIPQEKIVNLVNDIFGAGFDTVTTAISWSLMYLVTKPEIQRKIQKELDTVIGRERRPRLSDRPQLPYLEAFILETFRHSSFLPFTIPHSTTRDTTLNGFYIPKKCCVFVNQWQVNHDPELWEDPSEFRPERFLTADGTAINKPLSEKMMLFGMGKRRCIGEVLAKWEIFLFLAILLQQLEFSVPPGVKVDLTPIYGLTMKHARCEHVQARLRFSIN
# [16] = Oral bioavailability in C57BL/6 mouse at 3 mg/kg measured up to 24 hrs; assay type: ADME, organism-based; conditions: in vivo
# [17] = Clearance in C57BL/6 mouse at 3 mg/kg, po measured up to 24 hrs; assay type: ADME, organism-based; conditions: in vivo
# [18] = Half life in C57BL/6 mouse at 3 mg/kg, po measured up to 24 hrs; assay type: ADME, organism-based; conditions: in vivo
# [19] = AUC in C57BL/6 mouse at 3 mg/kg, po measured up to 24 hrs; assay type: ADME, organism-based; set-up: route oral, dose 3 mg/kg, time <=24; conditions: in vivo
# [20] = Cmax in C57BL/6 mouse at 3 mg/kg, po measured up to 24 hrs; assay type: ADME, organism-based; set-up: route oral, dose 3 mg/kg, time <=24; conditions: in vivo
# [21] = Oral bioavailability in Beagle dog at 2 mg/kg measured up to 24 hrs; assay type: ADME, organism-based, Canis lupus familiaris; conditions: in vivo
# [22] = Clearance in Beagle dog at 2 mg/kg, po measured up to 24 hrs; assay type: ADME, organism-based, Canis lupus familiaris; conditions: in vivo
# [23] = Half life in Beagle dog at 2 mg/kg, po measured up to 24 hrs; assay type: ADME, organism-based, Canis lupus familiaris; conditions: in vivo
# [24] = AUC in Beagle dog at 2 mg/kg, po measured up to 24 hrs; assay type: ADME, organism-based, Canis lupus familiaris; set-up: route oral, dose 2 mg/kg, time <=24; conditions: in vivo
# [25] = Cmax in Beagle dog at 2 mg/kg, po measured up to 24 hrs; assay type: ADME, organism-based, Canis lupus familiaris; set-up: route oral, dose 2 mg/kg, time <=24; conditions: in vivo
# [26] = Oral bioavailability in Sprague-Dawley rat at 3 mg/kg measured up to 24 hrs; assay type: ADME, organism-based; conditions: in vivo
# [27] = Clearance in Sprague-Dawley rat at 3 mg/kg, po measured up to 24 hrs; assay type: ADME, organism-based; conditions: in vivo
# [28] = Half life in Sprague-Dawley rat at 3 mg/kg, po measured up to 24 hrs; assay type: ADME, organism-based; conditions: in vivo
# [29] = AUC in Sprague-Dawley rat at 3 mg/kg, po measured up to 24 hrs; assay type: ADME, organism-based; set-up: route oral, dose 3 mg/kg, time <=24; conditions: in vivo
# [30] = Cmax in Sprague-Dawley rat at 3 mg/kg, po measured up to 24 hrs; assay type: ADME, organism-based; set-up: route oral, dose 3 mg/kg, time <=24; conditions: in vivo
# Sequence of Tryptophan 2,3-dioxygenase (P48775 whole entry): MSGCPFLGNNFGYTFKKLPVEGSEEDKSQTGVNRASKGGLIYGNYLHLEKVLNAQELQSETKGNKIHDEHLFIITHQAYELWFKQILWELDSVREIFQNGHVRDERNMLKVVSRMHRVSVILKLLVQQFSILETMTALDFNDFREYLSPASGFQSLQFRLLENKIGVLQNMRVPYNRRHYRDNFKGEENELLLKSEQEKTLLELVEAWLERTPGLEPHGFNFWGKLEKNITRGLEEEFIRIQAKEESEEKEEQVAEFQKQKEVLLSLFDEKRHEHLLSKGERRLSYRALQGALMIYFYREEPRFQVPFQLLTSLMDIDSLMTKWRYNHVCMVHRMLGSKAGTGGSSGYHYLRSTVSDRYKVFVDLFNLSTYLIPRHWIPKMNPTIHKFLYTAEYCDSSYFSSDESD
# T1 sequence (P14902 whole entry): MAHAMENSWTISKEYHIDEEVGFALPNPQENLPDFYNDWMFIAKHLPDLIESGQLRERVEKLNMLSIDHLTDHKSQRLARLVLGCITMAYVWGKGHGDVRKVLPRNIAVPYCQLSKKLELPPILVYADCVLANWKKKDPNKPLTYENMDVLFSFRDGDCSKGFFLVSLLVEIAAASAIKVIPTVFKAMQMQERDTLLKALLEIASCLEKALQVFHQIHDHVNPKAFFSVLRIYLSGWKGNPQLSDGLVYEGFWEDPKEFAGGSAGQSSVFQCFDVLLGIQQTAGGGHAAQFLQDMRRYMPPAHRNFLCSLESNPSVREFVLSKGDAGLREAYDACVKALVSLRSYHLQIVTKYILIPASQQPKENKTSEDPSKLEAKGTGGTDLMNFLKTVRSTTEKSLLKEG
# Sequence of Cytochrome P450 2D6 (P10635 whole entry): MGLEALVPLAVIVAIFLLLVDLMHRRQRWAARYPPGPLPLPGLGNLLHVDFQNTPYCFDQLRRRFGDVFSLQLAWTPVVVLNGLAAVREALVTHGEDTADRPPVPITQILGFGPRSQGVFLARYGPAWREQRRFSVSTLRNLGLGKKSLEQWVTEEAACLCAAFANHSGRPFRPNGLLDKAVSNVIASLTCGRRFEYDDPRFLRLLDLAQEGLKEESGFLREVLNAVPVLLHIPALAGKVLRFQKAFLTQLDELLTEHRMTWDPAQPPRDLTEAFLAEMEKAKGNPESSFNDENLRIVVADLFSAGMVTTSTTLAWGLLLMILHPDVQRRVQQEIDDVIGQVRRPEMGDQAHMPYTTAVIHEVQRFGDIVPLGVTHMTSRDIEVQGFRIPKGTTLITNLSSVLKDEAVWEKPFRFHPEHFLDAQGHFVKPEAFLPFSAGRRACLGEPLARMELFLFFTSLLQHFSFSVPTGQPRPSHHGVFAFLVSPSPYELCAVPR
# Sequence of Cytochrome P450 3A4 (P08684 whole entry): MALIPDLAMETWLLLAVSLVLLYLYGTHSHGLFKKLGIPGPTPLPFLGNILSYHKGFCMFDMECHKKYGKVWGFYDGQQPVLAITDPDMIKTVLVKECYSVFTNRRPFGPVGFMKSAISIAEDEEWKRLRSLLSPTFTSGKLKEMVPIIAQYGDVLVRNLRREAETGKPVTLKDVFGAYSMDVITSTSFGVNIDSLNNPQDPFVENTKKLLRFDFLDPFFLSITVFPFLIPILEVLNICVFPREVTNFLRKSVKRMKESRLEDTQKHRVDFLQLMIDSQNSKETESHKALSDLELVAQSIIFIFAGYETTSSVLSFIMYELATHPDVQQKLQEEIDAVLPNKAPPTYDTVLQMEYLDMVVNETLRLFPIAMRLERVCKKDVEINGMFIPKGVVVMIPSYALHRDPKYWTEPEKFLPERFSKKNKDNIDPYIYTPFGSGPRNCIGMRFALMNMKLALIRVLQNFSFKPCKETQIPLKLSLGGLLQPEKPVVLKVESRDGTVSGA
# Sequence of Cytochrome P450 2C9 (P11712 whole entry): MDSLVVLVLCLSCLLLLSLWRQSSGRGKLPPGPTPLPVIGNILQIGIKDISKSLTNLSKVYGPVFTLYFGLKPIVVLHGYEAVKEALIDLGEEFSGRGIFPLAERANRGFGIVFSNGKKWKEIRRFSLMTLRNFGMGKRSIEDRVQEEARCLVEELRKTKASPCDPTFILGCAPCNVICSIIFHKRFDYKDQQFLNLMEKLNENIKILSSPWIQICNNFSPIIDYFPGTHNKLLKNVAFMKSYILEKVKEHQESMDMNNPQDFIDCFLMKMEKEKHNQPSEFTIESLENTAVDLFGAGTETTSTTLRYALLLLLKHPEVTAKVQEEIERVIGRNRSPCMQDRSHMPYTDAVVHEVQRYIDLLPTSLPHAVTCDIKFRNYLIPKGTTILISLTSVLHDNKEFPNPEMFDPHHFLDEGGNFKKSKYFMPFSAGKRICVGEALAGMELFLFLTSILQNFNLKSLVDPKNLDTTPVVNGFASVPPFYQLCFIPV
# Sequence of Voltage-gated inwardly rectifying potassium channel KCNH2 (Q12809 whole entry): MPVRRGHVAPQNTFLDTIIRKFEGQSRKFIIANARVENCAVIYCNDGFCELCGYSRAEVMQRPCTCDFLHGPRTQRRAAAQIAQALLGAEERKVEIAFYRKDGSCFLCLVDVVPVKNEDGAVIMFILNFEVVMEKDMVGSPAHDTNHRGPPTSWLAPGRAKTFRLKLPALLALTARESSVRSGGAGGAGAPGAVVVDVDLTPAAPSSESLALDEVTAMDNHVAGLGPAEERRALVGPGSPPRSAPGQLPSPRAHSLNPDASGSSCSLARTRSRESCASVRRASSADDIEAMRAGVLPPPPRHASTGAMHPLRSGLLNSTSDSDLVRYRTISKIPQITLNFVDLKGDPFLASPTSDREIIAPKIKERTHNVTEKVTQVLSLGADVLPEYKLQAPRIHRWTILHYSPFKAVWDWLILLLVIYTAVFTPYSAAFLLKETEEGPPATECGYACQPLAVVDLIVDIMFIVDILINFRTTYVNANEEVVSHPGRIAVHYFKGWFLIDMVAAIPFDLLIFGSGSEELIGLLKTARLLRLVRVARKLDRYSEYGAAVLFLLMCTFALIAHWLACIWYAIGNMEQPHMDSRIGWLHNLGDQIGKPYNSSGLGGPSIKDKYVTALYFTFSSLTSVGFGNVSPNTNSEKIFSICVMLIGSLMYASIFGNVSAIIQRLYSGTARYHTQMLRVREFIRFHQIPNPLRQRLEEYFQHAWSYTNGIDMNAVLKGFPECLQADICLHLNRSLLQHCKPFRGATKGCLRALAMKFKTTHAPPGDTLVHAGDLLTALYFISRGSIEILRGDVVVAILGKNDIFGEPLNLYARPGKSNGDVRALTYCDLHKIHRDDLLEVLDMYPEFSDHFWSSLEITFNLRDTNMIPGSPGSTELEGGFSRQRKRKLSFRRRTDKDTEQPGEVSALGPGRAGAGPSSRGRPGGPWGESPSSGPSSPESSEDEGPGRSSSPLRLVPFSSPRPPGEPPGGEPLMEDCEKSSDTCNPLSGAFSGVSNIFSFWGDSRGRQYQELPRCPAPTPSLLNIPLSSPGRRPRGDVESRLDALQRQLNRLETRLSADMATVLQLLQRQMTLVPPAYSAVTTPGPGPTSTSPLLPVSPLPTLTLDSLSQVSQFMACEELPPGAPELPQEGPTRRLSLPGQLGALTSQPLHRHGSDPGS
# Sequence of Indoleamine 2,3-dioxygenase 1 (Mus musculus) (P28776 whole entry, looked up): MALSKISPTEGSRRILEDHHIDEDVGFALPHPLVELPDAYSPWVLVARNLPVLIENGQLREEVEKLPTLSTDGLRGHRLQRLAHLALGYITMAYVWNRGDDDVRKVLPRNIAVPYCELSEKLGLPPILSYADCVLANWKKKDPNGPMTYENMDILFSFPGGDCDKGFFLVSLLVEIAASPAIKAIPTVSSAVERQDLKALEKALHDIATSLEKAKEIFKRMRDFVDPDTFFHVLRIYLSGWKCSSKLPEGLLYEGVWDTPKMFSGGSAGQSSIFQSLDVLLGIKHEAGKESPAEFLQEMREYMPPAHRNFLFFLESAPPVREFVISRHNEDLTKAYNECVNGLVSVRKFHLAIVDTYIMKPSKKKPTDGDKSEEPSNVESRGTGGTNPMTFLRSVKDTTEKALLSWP
# Sequence of Cytochrome P450 2C19 (P33261 whole entry): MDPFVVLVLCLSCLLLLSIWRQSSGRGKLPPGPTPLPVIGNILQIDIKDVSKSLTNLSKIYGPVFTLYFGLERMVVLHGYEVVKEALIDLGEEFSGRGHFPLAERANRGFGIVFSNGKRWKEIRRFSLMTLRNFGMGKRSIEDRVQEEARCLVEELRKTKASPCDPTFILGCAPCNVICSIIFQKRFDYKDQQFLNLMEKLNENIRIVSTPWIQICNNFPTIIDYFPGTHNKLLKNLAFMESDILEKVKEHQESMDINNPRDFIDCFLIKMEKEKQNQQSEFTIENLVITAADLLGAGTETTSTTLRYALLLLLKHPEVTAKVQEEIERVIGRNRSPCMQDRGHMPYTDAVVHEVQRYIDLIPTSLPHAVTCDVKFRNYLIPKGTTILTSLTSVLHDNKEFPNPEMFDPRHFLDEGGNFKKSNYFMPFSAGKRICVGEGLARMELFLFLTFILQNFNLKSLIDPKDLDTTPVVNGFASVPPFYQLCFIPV
compound,measurement,setting,value
O=C(/C(=N/O)Nc1ccc(F)c(Br)c1)C1CCN(C(=O)Nc2ccccc2)CC1,IC50,[1],54 nM
same,IC50,[2],40 nM
same,IC50,[3],58000 nM
O=C(/C(=N/O)Nc1ccc(F)c(Br)c1)c1cncs1,IC50,[1],1770 nM
same,IC50,[2],51 nM
same,IC50,[3],11800 nM
O=C(/C(=N/O)Nc1ccc(F)c(Br)c1)c1cccs1,IC50,[1],272 nM
same,IC50,[2],117 nM
same,IC50,[3],63100 nM
O=C(/C(=N/O)Nc1ccc(F)c(Br)c1)C1CCN(c2ccccc2)CC1,IC50,[1],1020 nM
same,IC50,[2],149 nM
same,IC50,[3],> 100000 nM
O=C(NC[C@H]1CC[C@H](C(=O)/C(=N/O)Nc2ccc(F)c(Br)c2)CC1)c1ccccc1,IC50,[1],204 nM
same,IC50,[2],80 nM
same,IC50,[3],81000 nM
O=C(/C(=N/O)Nc1ccc(F)c(Br)c1)[C@H]1CC[C@H](NS(=O)(=O)Nc2ccccc2)CC1,IC50,[1],291 nM
same,IC50,[2],102 nM
same,IC50,[3],> 100000 nM
NS(=O)(=O)N1CCC(C(=O)/C(=N/O)Nc2ccc(F)c(Br)c2)CC1,Activity,[4],Non-Toxic
same,TGI,MC-38 [5],Dose-dependent effect
same,inhibition in vivo at 600 mg/kg,MC-38 [6],86.8%
same,inhibition in vivo at 300 mg/kg,MC-38 [7],71.7%
same,inhibition in vivo at 150 mg/kg,MC-38 [8],60.3%
same,inhibition,[9],87.8%
same,half-life,[10],5.81 h
same,half-life,[11],1.56 h
same,fraction unbound,[12],0.036
same,fraction unbound,[13],0.04
same,fraction unbound,[14],0.076
same,INH,[15],> 30 µM
same,INH,Cytochrome P450 3A4,> 10 µM
same,INH,Cytochrome P450 2D6,> 10 µM
same,IC50,Cytochrome P450 2C19,> 10000 nM
same,INH,Cytochrome P450 2C9,> 10 µM
same,INH,Cytochrome P450 1A2,> 10 µM
same,bioavailability,[16],44%
same,clearance,[17],61.2 mL/min/kg
same,half-life,[18],1.21 h
same,AUC at 24 h,[19],358 ng·h/mL
same,Cmax,[20],127 ng/mL
same,bioavailability,[21],102%
same,clearance,[22],9.3 mL/min/kg
same,half-life,[23],3.04 h
same,AUC at 24 h,[24],3630 ng·h/mL
same,Cmax,[25],742 ng/mL
same,bioavailability,[26],58.8%
same,clearance,[27],16.7 mL/min/kg
same,half-life,[28],6.14 h
same,AUC at 24 h,[29],1530 ng·h/mL
same,Cmax,[30],179 ng/mL
same,IC50,[1],45 nM
same,IC50,[2],63 nM
same,IC50,[3],62500 nM
O=C(/C(=N/O)Nc1ccc(F)c(Br)c1)C1CCCCC1,IC50,[1],63 nM
same,IC50,[2],132 nM
same,IC50,[3],79300 nM
O=C(/C(=N/O)Nc1ccc(F)c(Br)c1)c1ccccc1,IC50,[1],1430 nM
same,IC50,[2],410 nM
same,IC50,[3],80000 nM
